These results are taken from patent EP0926242A1, “GLIOTOXIN DERIVATIVES AND ANTICANCER AGENT COMPRISING THE SAME” (priority 1996, dated 1998).

The subject of one data set is various cancer cells. The data set is described as follows: Judgement of apoptosis by DAPI nucleus staining. As to conditions: agglomeration of chromosomes, fluorescence microscope. It counts as cell-based. Here is the method: Antitumor activity of acetylgliotoxin against various cancer cells was measured by the MTT method. Various cancer cells were adjusted to 4.0 × 10^4 cells/mL by using a medium (hereinafter referred to as medium A) composed of RPMI 1640 medium (GIBCO) containing 10% fetal calf serum, and each 0.1 mL of the cancer cells was pipetted into each well of a 96 well microtiter plate. The plate was incubated in a carbon dioxide gas incubator at 37 °C for 20 hours, and each 0.025 mL of samples (test compounds) suitably diluted with the medium A was added. Then, incubation was further carried out in the carbon dioxide gas incubator at 37 °C for 72 hours. […] Produced crystals were dissolved, and absorbance at 570 nm was measured by a microplate reader. […] Apoptosis was determined by incubating the plate in the carbon dioxide gas incubator at 37 °C for 20 hours, adding each 0.025 mL of samples (test compounds) suitably diluted with the medium A, incubating in the carbon dioxide gas incubator at 37 °C for 72 hours, according to the above method, adding nucleus-staining fluorescent dye DAPI (4,6 - diaminodino-2-henylindole) to each well so as to become 0.5 ng/mL, and after leaving at room temperature for 10 minutes, confirming agglomeration of chromosomes by using a fluorescence microscope.

Data set [1] in a line: Solubility of the isolated active component. It counts as physicochemical. Here is the method:
After cultivation by the above method was finished, an equal amount (3 L) of acetone was added to the 3 L culture solution, and extraction was carried out at room temperature for 30 minutes. Acetone was removed from the acetone-containing cultuer solution by an evaporator, and solvent extraction with ethyl acetate was carried out by a separating funnel. The solvent extract was dehydrated by sodium sulfate, and then, evaporated by an evaporator to dryness under reduced poressure to obtain 470 mg of the extract. Subsequently, the extract was adsorbed on a silica gel column, washed with toluene, and active fractions were eluted by toluene/ethyl acetate (8:2). The eluate was concentrated by an evaporator under reduced pressure to obtain 42 mg. The crude matters were subjected to high speed liquid chromatography ("Capsel-Pak C18", Shiseido, solvent: water:acetonitrile = 72:28), and a pure active substance was obtained by isochromatic elution. […] Ultraviolet absorption spectra end 266 nm (water: acetonitrile = 60 : 40) Molecular weight: 368 Thin layer chromatography: Absorbent; HPTLC Kieselgel 60 F 254 (MERK) Developing solvent: hexane : ethyl acetate = 6 : 4 R f value; 0.233 High speed liquid chromatogaphy: Used apparatus; UV detector : Waters 996 (Waters) Pump: HITACHI L―6200 (Hitachi Ltd.) Column: Reversed phase high speed liquid chromatography column for analysis (CAPCELL PAK C18 UG120 5 µ m 4.6 mm ⌀ × 250 mm (Shiseido) Solvent for elution; 30-100 % acetonitrile (linear grudient 20 minutes) Flow rate; 0.8 mL/min Retention time; about 10.5 minutes • Chemical shift values (cf. Fig. 1) in ^1H nuclear magnetic resonance spectra • ^1H―NMR (CDCl3) δ :5.97―6.04 (3H, m), 5.57 (1H, d), 5.02 (1H, d), 4.31 (1H, dd), 4.19 (1H, dd), 3.74 (1H, d), 3.44 (1H, dd), 3.17 (3H, s), 2.96 (1H, d), 2.14 (3H, s) • FAB MASS : 369 (MH^+) • Chemical shift values (cf. Fig. 2) in ^13C nuclear magnetic resonance spectra (600 MH3, CDCL3)

For `CC(=O)OC1C=CC=C2CC34SSC(CO)(C(=O)N3C21)N(C)C4=O` (stereo not shown) [acetylgliotoxin], the “apoptosis (cell death) -inducing ability” value with various cancer cells is recorded as “apoptosis (cell death) -inducing ability”. Besides, the Solubility result in data set [1] (in chloroform and dimethyl sulfoxide) is reported as “Easily soluble”; in data set [1] (in ethyl acetate, acetonitrile, toluene, methanol and acetone), “soluble”; in data set [1] (in water), “slightly soluble”.
